From patent publication US20230330280A1, “PREPARATIONS OF RADIUM-224 AND PROGENIES FOR USE IN RADIONUCLIDE THERAPY IN COMBINATION WITH DNA REPAIR INHIBITORS” (priority 2020, published 2023) come the findings set out here.

Where two headings read alike, the source gives them in different places.

The test system of test [1] is ES-2 (clear cell carcinoma) ovarian cancer cell line. Nature of the test: CyQuant NF cell proliferation assay (DNA content), single agents and paired combinations, ES-2. Type of test: cell-based. An excerpt:
(§1) Ovarian cancer cell lines: ES-2 (clear cell carcinoma) and SKOV-3 (adenocarcinoma), were used to investigate the pharmacodynamic interactions resulting from the paired combination of Radium-224 (^224Ra) with a DNA repair inhibitor exemplified by the poly (ADP-ribose) polymerase inhibitors (PARPi); niraparib and olaparib.

In test [2] the test system is SKOV-3 (adenocarcinoma) ovarian cancer cell line. Nature of the test: CyQuant NF cell proliferation assay (DNA content), single agents and paired combinations, SKOV-3. It counts as cell-based. The settings on record: Homo sapiens.
From the text: as §1

The mark [3] stands for this setting: 72 h, ES-2, Day 3, PARPi in paired combination with 224Ra, read-out: Paired combination IC50.
Where [4] appears, read: 72 h, ES-2, Day 3, single agent, read-out: Single agent IC50.
The mark [5] stands for this setting: 96 h, ES-2, Day 4, PARPi in paired combination with 224Ra, read-out: Paired combination IC50.
[6] abbreviates: 96 h, ES-2, Day 4, single agent, read-out: Single agent IC50.
[7] abbreviates: 120 h, ES-2, Day 5, PARPi in paired combination with 224Ra, read-out: Paired combination IC50.
Setting [8] is: 120 h, ES-2, Day 5, single agent, read-out: Single agent IC50.
[9] abbreviates: SK-OV-3, 72 h, SKOV-3, Day 3, PARPi in paired combination with 224Ra, read-out: Paired combination IC50.
[10] abbreviates: SK-OV-3, 72 h, SKOV-3, Day 3, single agent, read-out: Single agent IC50.
The mark [11] stands for this setting: SK-OV-3, 96 h, SKOV-3, Day 4, PARPi in paired combination with 224Ra, read-out: Paired combination IC50.
Setting [12] is: SK-OV-3, 96 h, SKOV-3, Day 4, single agent, read-out: Single agent IC50.
The mark [13] stands for this setting: SK-OV-3, 120 h, SKOV-3, Day 5, PARPi in paired combination with 224Ra, read-out: Paired combination IC50.
Where [14] appears, read: SK-OV-3, 120 h, SKOV-3, Day 5, single agent, read-out: Single agent IC50.

In general, IC50 refers to the concentration that gives 50% inhibition. Regarding `NC(=O)c1cccc2cn(-c3ccc([C@@H]4CCCNC4)cc3)nc12` [Niraparib, niraparib], the IC50 in test [1] (setting [3]) amounted to 420 nM; in test [1] (setting [4]), 690 nM; in test [1] (setting [5]), 250 nM; in test [1] (setting [6]) it was 780 nM; in test [1] (setting [7]), 360 nM; in test [1] (setting [8]), 620 nM. Further, the IC50 in test [2] (setting [9]) is 2450 nM; in test [2] (setting [10]), 5160 nM; in test [2] (setting [11]), 430 nM; in test [2] (setting [12]), 2830 nM; in test [2] (setting [13]), 220 nM; in test [2] (setting [14]), 2200 nM.
`O=C(c1cc(Cc2n[nH]c(=O)c3ccccc23)ccc1F)N1CCN(C(=O)C2CC2)CC1` [Olaparib, olaparib]: the IC50 in test [1] (setting [3]) was determined as 1430 nM; in test [1] (setting [4]) it was 3510 nM; in test [1] (setting [5]), 500 nM; in test [1] (setting [6]), 1230 nM; in test [1] (setting [7]) it was 930 nM; in test [1] (setting [8]), 2210 nM. The IC50 in test [2] (setting [9]) was 10200 nM; in test [2] (setting [10]) it was 21400 nM; in test [2] (setting [11]), 2670 nM; in test [2] (setting [12]) it was 23600 nM; in test [2] (setting [13]), 810 nM; in test [2] (setting [14]) it was 1830 nM.
